Measured values published in patent US12570650B2, “6-substituted pyridazine compounds as SMARCA2 and/or SMARCA4 degraders” (Aurigene Oncology Limited, priority 2020, dated 2026).

Legend:
[1] = molecular target: T1, SMARCA2 (Homo sapiens, UniProt P51531); test: SMARCA2 degradation in VCaP cells by Western blot; type: cell-based; details: 16 hours
T1 construct: Determination of SMARCA2 and SMARCA4 Degradation in VCaP Cells by Western Blot; endogenous in cells; host or cells: VCaP (ATCC CRL-2876)
Experimental: Example-P2: Determination of SMARCA2 and SMARCA4 Degradation in VCaP Cells by Western Blot
VCaP (ATCC CRL-2876) was plated in 6 well plates using complete Dulbecco's Modified Eagle's Medium. On the third day, compounds of present invention were added to cells from 10 mM stocks made in DMSO (Sigma Cat no. D2650). Each concentration of compound was tested with DMSO not exceeding final percentage of 0.3 in the cells. Cells were incubated with the compound for 16 hours followed by harvesting with 1×RIPA lysis buffer (Thermo Fischer, catalogue number #89900) containing protease inhibitor cocktail (Sigma catalogue number #P-8340). Equal amount of protein was loaded on SDS PAGE gel for electrophoresis. Western blot was carried out for detection of either SMARCA2 (Cell signalling technologies, catalogue number #11966) or SMARCA4 antibody (Cell signalling technologies, catalogue number #52251). Beta-Tubulin antibody (Cell signalling technologies, catalogue number #86298) was used as loading control. Percentage of SMARCA2 or SMARCA4 degradation was calculated using formula % Degradation=100−(normalized band intensity in treated sample/normalized band intensity in DMSO sample)*100.

[2] = molecular target: T2, SMARCA4 (Homo sapiens, UniProt P51532); test: SMARCA4 degradation in VCaP cells by Western blot; type: cell-based; details: 16 hours
T2 construct: Determination of SMARCA2 and SMARCA4 Degradation in VCaP Cells by Western Blot; endogenous in cells; host or cells: VCaP (ATCC CRL-2876)
Experimental: On the third day, compounds of present invention were added to cells from 10 mM stocks made in DMSO (Sigma Cat no. D2650). Each concentration of compound was tested with DMSO not exceeding final percentage of 0.3 in the cells. […] Equal amount of protein was loaded on SDS PAGE gel for electrophoresis. […] Percentage of SMARCA2 or SMARCA4 degradation was calculated using formula % Degradation=100−(normalized band intensity in treated sample/normalized band intensity in DMSO sample)*100.

T2 sequence (P51532 whole entry): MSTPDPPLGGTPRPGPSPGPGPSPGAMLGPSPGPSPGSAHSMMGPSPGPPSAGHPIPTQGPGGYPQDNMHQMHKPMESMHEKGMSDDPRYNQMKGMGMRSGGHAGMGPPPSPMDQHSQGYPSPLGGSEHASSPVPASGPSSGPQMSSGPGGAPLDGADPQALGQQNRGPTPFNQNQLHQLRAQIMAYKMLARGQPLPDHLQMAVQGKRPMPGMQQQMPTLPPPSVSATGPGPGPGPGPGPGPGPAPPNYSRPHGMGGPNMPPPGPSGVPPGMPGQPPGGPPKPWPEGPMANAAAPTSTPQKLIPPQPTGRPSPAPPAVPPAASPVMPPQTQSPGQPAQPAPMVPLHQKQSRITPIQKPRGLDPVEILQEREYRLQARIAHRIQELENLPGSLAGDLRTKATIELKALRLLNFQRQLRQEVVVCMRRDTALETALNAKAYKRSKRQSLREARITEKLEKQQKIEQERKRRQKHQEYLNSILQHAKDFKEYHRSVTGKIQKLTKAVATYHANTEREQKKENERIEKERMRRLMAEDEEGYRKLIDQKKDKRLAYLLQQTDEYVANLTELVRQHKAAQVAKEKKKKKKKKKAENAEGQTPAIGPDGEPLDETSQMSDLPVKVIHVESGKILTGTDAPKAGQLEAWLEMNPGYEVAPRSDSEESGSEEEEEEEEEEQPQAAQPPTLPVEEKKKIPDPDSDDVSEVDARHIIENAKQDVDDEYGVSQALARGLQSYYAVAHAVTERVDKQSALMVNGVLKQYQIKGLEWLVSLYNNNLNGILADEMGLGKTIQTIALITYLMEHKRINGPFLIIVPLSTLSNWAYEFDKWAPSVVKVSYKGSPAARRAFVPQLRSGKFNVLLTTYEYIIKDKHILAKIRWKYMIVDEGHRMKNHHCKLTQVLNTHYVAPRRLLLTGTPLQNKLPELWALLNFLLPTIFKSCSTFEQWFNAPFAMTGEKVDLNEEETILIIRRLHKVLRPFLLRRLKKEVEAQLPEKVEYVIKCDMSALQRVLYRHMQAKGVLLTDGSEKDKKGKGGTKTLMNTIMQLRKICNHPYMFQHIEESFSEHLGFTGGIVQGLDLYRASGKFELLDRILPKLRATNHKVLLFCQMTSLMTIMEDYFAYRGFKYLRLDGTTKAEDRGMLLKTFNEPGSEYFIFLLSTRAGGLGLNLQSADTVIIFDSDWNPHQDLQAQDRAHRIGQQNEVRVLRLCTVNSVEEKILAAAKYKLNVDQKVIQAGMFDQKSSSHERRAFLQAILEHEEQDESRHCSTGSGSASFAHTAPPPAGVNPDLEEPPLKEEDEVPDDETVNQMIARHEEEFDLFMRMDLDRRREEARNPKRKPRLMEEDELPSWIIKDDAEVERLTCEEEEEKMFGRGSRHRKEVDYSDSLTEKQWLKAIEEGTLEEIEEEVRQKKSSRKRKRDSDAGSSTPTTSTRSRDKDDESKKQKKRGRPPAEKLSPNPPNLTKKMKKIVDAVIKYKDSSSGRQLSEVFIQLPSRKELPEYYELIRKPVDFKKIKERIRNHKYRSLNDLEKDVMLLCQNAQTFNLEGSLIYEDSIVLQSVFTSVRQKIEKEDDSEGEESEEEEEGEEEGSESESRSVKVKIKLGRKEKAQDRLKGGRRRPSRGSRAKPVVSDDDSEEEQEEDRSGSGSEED
T1 sequence (P51531 whole entry): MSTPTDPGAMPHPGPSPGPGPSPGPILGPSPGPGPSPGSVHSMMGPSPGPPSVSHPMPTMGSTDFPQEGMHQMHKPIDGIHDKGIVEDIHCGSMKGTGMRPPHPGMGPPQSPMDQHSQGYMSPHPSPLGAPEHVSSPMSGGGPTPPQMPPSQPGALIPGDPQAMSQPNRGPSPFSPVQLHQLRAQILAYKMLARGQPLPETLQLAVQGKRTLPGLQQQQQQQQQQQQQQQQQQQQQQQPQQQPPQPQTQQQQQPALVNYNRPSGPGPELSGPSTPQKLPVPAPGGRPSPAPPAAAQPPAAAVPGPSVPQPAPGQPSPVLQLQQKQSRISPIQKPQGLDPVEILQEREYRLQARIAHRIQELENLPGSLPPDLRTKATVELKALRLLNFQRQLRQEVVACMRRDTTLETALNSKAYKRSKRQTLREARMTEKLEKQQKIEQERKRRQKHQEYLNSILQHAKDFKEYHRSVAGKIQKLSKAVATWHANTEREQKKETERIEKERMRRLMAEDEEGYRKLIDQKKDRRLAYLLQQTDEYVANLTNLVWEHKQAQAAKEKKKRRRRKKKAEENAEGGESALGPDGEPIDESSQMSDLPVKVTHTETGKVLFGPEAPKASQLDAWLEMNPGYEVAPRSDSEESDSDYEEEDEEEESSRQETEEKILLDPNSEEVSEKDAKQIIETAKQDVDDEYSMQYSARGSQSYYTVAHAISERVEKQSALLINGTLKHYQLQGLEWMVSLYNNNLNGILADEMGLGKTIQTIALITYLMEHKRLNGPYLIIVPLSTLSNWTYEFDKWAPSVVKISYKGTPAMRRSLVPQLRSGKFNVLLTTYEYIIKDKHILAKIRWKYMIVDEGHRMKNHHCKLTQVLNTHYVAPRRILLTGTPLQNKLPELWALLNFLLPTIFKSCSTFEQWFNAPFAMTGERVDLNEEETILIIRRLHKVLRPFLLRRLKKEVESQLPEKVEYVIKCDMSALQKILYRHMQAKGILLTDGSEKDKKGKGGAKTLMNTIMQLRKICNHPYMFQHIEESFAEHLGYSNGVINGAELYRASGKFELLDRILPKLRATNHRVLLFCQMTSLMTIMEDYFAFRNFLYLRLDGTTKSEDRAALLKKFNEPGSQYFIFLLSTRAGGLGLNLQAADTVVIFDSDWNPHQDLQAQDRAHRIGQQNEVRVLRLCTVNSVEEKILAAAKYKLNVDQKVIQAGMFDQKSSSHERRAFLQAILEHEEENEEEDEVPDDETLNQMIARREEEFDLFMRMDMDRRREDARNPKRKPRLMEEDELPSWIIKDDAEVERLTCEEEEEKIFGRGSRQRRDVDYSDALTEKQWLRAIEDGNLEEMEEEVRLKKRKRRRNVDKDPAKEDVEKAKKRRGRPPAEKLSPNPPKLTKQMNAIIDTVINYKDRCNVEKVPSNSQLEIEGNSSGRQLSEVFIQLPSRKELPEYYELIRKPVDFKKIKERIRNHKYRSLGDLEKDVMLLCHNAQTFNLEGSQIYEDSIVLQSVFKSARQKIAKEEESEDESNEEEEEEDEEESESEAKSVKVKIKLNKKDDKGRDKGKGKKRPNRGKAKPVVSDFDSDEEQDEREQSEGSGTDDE

Structure (SMILES): Cc1ncsc1-c1ccc([C@H](C)NC(=O)[C@@H]2C[C@@H](O)CN2C(=O)C(c2cc(-c3ccc(-c4cnnc(-c5ccccc5O)c4)cc3)no2)C(C)C)cc1 (mixture of isomers) [Compound 1, (2S,4R)-4-hydroxy-1-(2-(3-(4-(6-(2-hydroxyphenyl)pyridazin-4-yl)phenyl)isoxazol-5-yl)-3-methylbutanoyl)-N-((S)-1-(4-(4-methylthiazol-5-yl)phenyl)ethyl)pyrrolidine-2-carboxamide]
- Percent degradation (at 100 nM) SMARCA2 [1]: 0%
- Percent degradation (at 100 nM) SMARCA4 [2]: 30%

Structure (SMILES): Cc1ncsc1-c1ccc([C@H](C)NC(=O)[C@@H]2C[C@@H](O)CN2C(=O)C(c2cc(OCCN(C)c3ccc(-c4cnnc(-c5ccccc5O)c4)cc3)no2)C(C)C)cc1 (mixture of isomers) [Compound 44, (2S,4R)-4-hydroxy-1-(2-(3-(2-((4-(6-(2-hydroxyphenyl)pyridazin-4-yl)phenyl)(methyl)amino)ethoxy)isoxazol-5-yl)-3-methylbutanoyl)-N-((S)-1-(4-(4-methylthiazol-5-yl)phenyl)ethyl)pyrrolidine-2-carboxamide]
- Percent degradation (at 100 nM) SMARCA2 [1]: 22%
- Percent degradation (at 100 nM) SMARCA4 [2]: 6%

Structure (SMILES): Cc1ncsc1-c1ccc([C@H](C)NC(=O)[C@@H]2C[C@@H](O)CN2C(=O)[C@@H](NC(=O)C(C)N2CCN(c3ccc(-c4cnnc(-c5ccccc5O)c4)cc3)CC2)C(C)(C)C)cc1 (single isomer, unassigned) [Compound 29]
- Percent degradation (at 100 nM) SMARCA2 [1]: 40%
- Percent degradation (at 100 nM) SMARCA4 [2]: 0%

Structure (SMILES): Cc1ncsc1-c1ccc([C@H](C)NC(=O)[C@@H]2C[C@@H](O)CN2C(=O)[C@@H](NC(=O)CN2CCN(c3ccc(-c4cnnc(Cl)c4)cc3)CC2)C(C)(C)C)cc1 [Compound 3, (2S,4R)-1-((S)-2-(2-(4-(4-(6-chloropyridazin-4-yl)phenyl)piperazin-1-yl)acetamido)-3,3-dimethylbutanoyl)-4-hydroxy-N-((S)-1-(4-(4-methylthiazol-5-yl)phenyl)ethyl)pyrrolidine-2-carboxamide]
- Percent degradation (at 100 nM) SMARCA2 [1]: 20%
- Percent degradation (at 100 nM) SMARCA4 [2]: 47%

Structure (SMILES): Cc1ncsc1-c1ccc([C@H](C)NC(=O)[C@@H]2C[C@@H](O)CN2C(=O)[C@@H](NC(=O)CN2CCN(c3ccc(-c4cnnc(-c5cc(F)ccc5O)c4)cc3)CC2)C(C)(C)C)cc1 [Compound 4, (2S,4R)-1-((S)-2-(2-(4-(4-(6-(5-fluoro-2-hydroxyphenyl)pyridazin-4-yl)phenyl)piperazin-1-yl)acetamido)-3,3-dimethylbutanoyl)-4-hydroxy-N-((S)-1-(4-(4-methylthiazol-5-yl)phenyl)ethyl)pyrrolidine-2-carboxamide]
- Percent degradation (at 100 nM) SMARCA2 [1]: 81%
- Percent degradation (at 100 nM) SMARCA4 [2]: 0%

Structure (SMILES): Cc1ncsc1-c1ccc([C@H](C)NC(=O)[C@@H]2C[C@@H](O)CN2C(=O)[C@@H](NC(=O)CCN2CCN(c3ccc(-c4cnnc(-c5ccccc5O)c4)cc3)CC2)C(C)(C)C)cc1 [Compound 8, (2S,4R)-4-hydroxy-1-((S)-2-(3-(4-(4-(6-(2-hydroxyphenyl)pyridazin-4-yl)phenyl)piperazin-1-yl)propanamido)-3,3-dimethylbutanoyl)-N-((S)-1-(4-(4-methylthiazol-5-yl)phenyl)ethyl)pyrrolidine-2-carboxamide]
- Percent degradation (at 100 nM) SMARCA2 [1]: 84%
- Percent degradation (at 100 nM) SMARCA4 [2]: 20%

Structure (SMILES): Cc1ncsc1-c1ccc([C@H](C)NC(=O)[C@@H]2C[C@@H](O)CN2C(=O)[C@@H](NC(=O)CN2CCN(c3ccc(-c4cnnc(-c5cnn(C)c5)c4)cc3)CC2)C(C)(C)C)cc1 [Compound 9, (2S,4R)-1-((S)-3,3-dimethyl-2-(2-(4-(4-(6-(1-methyl-1H-pyrazol-4-yl)pyridazin-4-yl)phenyl)piperazin-1-yl)acetamido)butanoyl)-4-hydroxy-N-((S)-1-(4-(4-methylthiazol-5-yl)phenyl)ethyl)pyrrolidine-2-carboxamide]
- Percent degradation (at 100 nM) SMARCA2 [1]: 0%
- Percent degradation (at 100 nM) SMARCA4 [2]: 14%

Structure (SMILES): Cc1ncsc1-c1ccc([C@H](C)NC(=O)[C@@H]2C[C@@H](O)CN2C(=O)[C@@H](NC(=O)CN2CCC(Oc3ccc(-c4cnnc(-c5ccccc5O)c4)cc3)CC2)C(C)(C)C)cc1 [Compound 19, (2S,4R)-4-hydroxy-1-((S)-2-(2-(4-(4-(6-(2-hydroxyphenyl)pyridazin-4-yl)phenoxy)piperidin-1-yl)acetamido)-3,3-dimethylbutanoyl)-N-((S)-1-(4-(4-methylthiazol-5-yl)phenyl)ethyl)pyrrolidine-2-carboxamide]
- Percent degradation (at 100 nM) SMARCA2 [1]: 88%
- Percent degradation (at 100 nM) SMARCA4 [2]: 0%

Structure (SMILES): Cc1ncsc1-c1ccc([C@H](C)NC(=O)[C@@H]2C[C@@H](O)CN2C(=O)[C@@H](NC(=O)CN2CCN(c3ccc(-c4cnnc(-c5ccccc5O)c4)cc3F)CC2)C(C)(C)C)cc1 [Compound 26, (2S,4R)-1-((S)-2-(2-(4-(2-fluoro-4-(6-(2-hydroxyphenyl)pyridazin-4-yl)phenyl)piperazin-1-yl)acetamido)-3,3-dimethylbutanoyl)-4-hydroxy-N-((S)-1-(4-(4-methylthiazol-5-yl)phenyl)ethyl)pyrrolidine-2-carboxamide]
- Percent degradation (at 100 nM) SMARCA2 [1]: 89%
- Percent degradation (at 100 nM) SMARCA4 [2]: 0%

Structure (SMILES): Cc1ncsc1-c1ccc([C@H](C)NC(=O)[C@@H]2C[C@@H](O)CN2C(=O)[C@@H](NC(=O)CN2CCC(n3cc(-c4cnnc(-c5ccccc5O)c4)cn3)CC2)C(C)(C)C)cc1 [Compound 33, (2S,4R)-4-hydroxy-1-((S)-2-(2-(4-(4-(6-(2-hydroxyphenyl)pyridazin-4-yl)-1H-pyrazol-1-yl)piperidin-1-yl)acetamido)-3,3-dimethylbutanoyl)-N-((S)-1-(4-(4-methylthiazol-5-yl)phenyl)ethyl)pyrrolidine-2-carboxamide]
- Percent degradation (at 100 nM) SMARCA2 [1]: 69%
- Percent degradation (at 100 nM) SMARCA4 [2]: 0%

Structure (SMILES): Cc1ncsc1-c1ccc([C@H](C)NC(=O)[C@@H]2C[C@@H](O)CN2C(=O)[C@@H](NC(=O)CCCCOc2ccc(-c3cnnc(-c4ccccc4O)c3)cc2)C(C)(C)C)cc1 [Compound 34, (2S,4R)-4-hydroxy-1-((S)-2-(5-(4-(6-(2-hydroxyphenyl)pyridazin-4-yl)phenoxy)pentanamido)-3,3-dimethylbutanoyl)-N-((S)-1-(4-(4-methylthiazol-5-yl)phenyl)ethyl)pyrrolidine-2-carboxamide]
- Percent degradation (at 100 nM) SMARCA2 [1]: 81%
- Percent degradation (at 100 nM) SMARCA4 [2]: 58%

Structure (SMILES): Cc1ncsc1-c1ccc([C@H](C)NC(=O)[C@@H]2C[C@@H](O)CN2C(=O)[C@@H](NC(=O)CN2CCN(c3ccc(-c4cnnc(-c5ccccc5C(F)F)c4)cc3)CC2)C(C)(C)C)cc1 [Compound 37, (2S,4R)-1-((S)-2-(2-(4-(4-(6-(2-(difluoromethyl)phenyl)pyridazin-4-yl)phenyl)piperazin-1-yl)acetamido)-3,3-dimethylbutanoyl)-4-hydroxy-N-((S)-1-(4-(4-methylthiazol-5-yl)phenyl)ethyl)pyrrolidine-2-carboxamide]
- Percent degradation (at 100 nM) SMARCA2 [1]: 45%
- Percent degradation (at 100 nM) SMARCA4 [2]: 26%
